The results in this text go back to patent publication US20120283280A1, “IMIDAZOTETRAZINONE-BASED COMBI-MOLECULES” (priority 2011, published 2012).

As usually defined, the IC50 is the concentration that gives 50% inhibition.

In one test the test system is LNCaP-ErbB2. The test is described as follows: Growth inhibition assay (SRB), LNCaP-ErbB2. The settings on record: 144 h, read-out: IC50 (x ± SD).
A further test deals with LNCaP-EGFR. The test is described as follows: Growth inhibition assay (SRB), LNCaP-EGFR. Conditions: 144 h, read-out: IC50 (x ± SD).
In test [1] the target is T1, EGFR autophosphorylation in DU145 cells (Homo sapiens, UniProt P00533).
T1 construct: endogenous in cells; host or cells: DU145
The test is described as follows: EGFR phosphorylation assay, whole cell (Western blot). In kind it is cell-based. The method, then: EGFR Phosphorylation Assay: DU145 cells (1×10^6) were preincubated in a six-well plate using 10% serum at 37° C. over a period of 24 h followed by a starving period of 24 h. The cells where then exposed to a dose range of each drug over a period of 2 h and subsequently treated with 50 ng/ml of EGF for 20 min at 37° C. The cells were washed with PBS and resuspended in cold lysis buffer [50 mmol/L Tris-HCl (pH 7.5), 150 mmol/L NaCl, 1% NP40, 1 mmol/L EDTA, 5 mmol/L NaF, 1 mmol/L Na3VO4, protease inhibitor tablet (Roche Biochemicals, Laval, Quebec, Canada)]. The lysates were kept on ice for 30 min and collected by centrifugation at 10,000 rpm for 20 min at 4° C. The concentrations of protein were determined using the Bio-Rad protein assay kit (Bio-Rad Laboratories, Hercules, Calif.). Equal amounts of protein […] were subjected to a 10% SDS-polyacrylamide gel electrophoresis (SDS-PAGE) and transferred to a polyvinylidene difluoride membrane (Millipore, Bedford, Mass.). Nonspecific binding on the membrane was minimized with a blocking buffer containing bovine serum albumin (5%) in PBS-Tween 20. The membranes were subsequently incubated with primary anti-phosphotyrosine antibody (Upstate Biotechnology, Lake Placid, N.Y.) for the detection of phosphotyrosine. The membranes were stripped and reprobed with anti-EGFR (Neomarkers, Fremont, Calif.) for determination of corresponding receptor levels. Blots were incubated with horseradish peroxidase-goat anti-mouse antibody (1:1,000 dilution; Cell Signaling Research, Beverly, Mass.), and the bands visualized with an enhanced chemiluminescence system (Amersham Pharmacia Biotech,. Little Chalfont, UK). Band intensities were measured using the SynGene GeneTools software package.
Inhibition of EGFR TK in Whole Cell Assay: DU145 cells were starved for 24 h and stimulated with EGF in the presence of the different drugs over a period of 2 h. Inhibition of autophosphorylation of EGFR was analyzed by Western blotting. The observed order of potency from this whole cell assay paralleled the one previously observed with ELISA. […]

Another test has as its target T2, EGFR tyrosine kinase (Homo sapiens, UniProt P00533).
T2 construct: purchased
The test can be described thus: EGFR kinase enzyme assay (ELISA, PGT phosphorylation). In kind it is biochemical. Conditions: ELISA, 8 minute exposure, PGT substrate; read-out: IC50, EGFR TK inhibition. As to the method:
EGFR Kinase Enzyme Assay: The EGFR kinase assay was performed following a known procedure. Briefly, Nunc MaxiSorp (Nalge Nunc International, Rochester, N.Y., USA) 96-well plates were incubated overnight at 37° C. with 100 μL/well of […] poly(L-glutamic acid-L-tyrosine, 4:1) PGT in PBS. Excess PGT was removed and the plates were washed three times with wash buffer (0.1% Tween-20 in PBS). The kinase reaction was performed using commercially available isolated EGFR (4.5 ng/well). The compound was added and phosphorylation was initiated by the addition of 20 μL/well of ATP (50 μM). After 8 min at room temperature with constant shaking, the reaction was terminated by aspiration of the reaction mixture and rinsing of the plates (four times) with wash buffer. Phosphorylated PGT was detected following a 25 min incubation with 50 μL/well of horseradish peroxidase-conjugated PY20 anti-phosphotyrosine antibody (Santa Cruz Biotechnology, Santa Cruz, Calif., USA) diluted to […] in blocking buffer (3% bovine serum albumin and 0.05% Tween-20 in PBS). The antibody was removed by aspiration and the plates washed four times with wash buffer. The signals were developed by the addition of 50 μL/well of 3,3′,5,5′-tetramethylbenzidine peroxidase substrate (Kirkegaard and Perry Laboratories, Gaithersberg, Md., USA). Following blue color development, H2SO4 (50 μL; 0.09 M) was added per well to stop the reaction. The plates were read at 450 nm using a Bio-Rad ELISA reader (model 2550; Bio-Rad, Hercules, Calif., USA).
Inhibition of EGFR TK: The EGFR TK inhibitory activity of JDF12 and its metabolite JDF04R was tested in a short 8 minute exposure to an ELISA assay. The assay was based on the inhibition of phosphorylation of poly(L-glutamic acid-L-tyrosine, 4:1) (PGT) by EGFR tyrosine kinase. […] As expected, the EGFR TK-inhibitory activity of MTZ was negligible (FIG. 1).
In general terms: ELISA stands for enzyme-linked immunosorbent assay.

The subject of another test is DU145 cells. The test is described as follows: Alkaline comet assay for quantization of DNA damage. In kind it is cell-based, human. The settings on record: DU145 cells, 2 h exposure. The method, then: Alkaline Comet Assay for Quantization of DNA Damage: A modified alkaline comet assay technique was used for quantization of DNA damage induced in DU145 cells. The cells were exposed to a dose range of the drugs (JDF12, JDF04R, or MTZ) over a period of 2 h and harvested with trypsin-EDTA. The cells were subsequently collected by centrifugation and resuspended in PBS. The resulting cell suspensions were diluted to 3×10^5 cell/mL and mixed with agarose (0.75%) in PBS at 37° C. in a 1:9 dilution. The gels were cast on Gelband strips (Mandel Scientific, Guelph, Ontario, Canada) using gel casting chambers and then immediately placed into a lysis buffer (2.5 M NaCl, 0.1 M tetrasodium EDTA, 10 mM Trisbase, 1% (v/v) N-lauryl sarcosine, 10% (v/v) DMSO, and 1% (v/v) Triton X-100). After being kept overnight at 4° C., the gels were gently rinsed with distilled water and immersed in a second lysis buffer (2.5 M NaCl, 0.1 M tetrasodium EDTA, 10 mM Tris base) containing 1 mg/mL proteinase K for 60 min at 37° C. The cells were subsequently rinsed with distilled water, incubated in alkaline electrophoresis buffer for 30 min at 37° C. and electrophoresed at 400 mA for 20 min. The gels were then rinsed with distilled water and placed into 1 M ammonium acetate for 30 min. The gels were subsequently soaked in 100% ethanol for 2 h, dried overnight and stained with SYBR Gold (1:10000 dilution of stock supplied by Molecular Probes, Eugene, Oreg.) for 20 min. Comets were visualized at 330× magnification and DNA damage was assessed using the tail moment parameter (i.e. the distance between the barycenter of the head and the tail of the comet multiplied by the percentage DNA in the tail region). A minimum of 50 cell comets were analyzed for each sample, using Comet Assay χ v4.2 image analysis software, and the values presented as average tail moments for the entire cell population.
The reactive nature of the latter species makes its detection very difficult. However, the induction of DNA damage (i.e. DNA alkylation) represents evidence of its formation and fleeting presence.

SMILES strings stand for the structures.

T1 sequence (P00533 25-1210): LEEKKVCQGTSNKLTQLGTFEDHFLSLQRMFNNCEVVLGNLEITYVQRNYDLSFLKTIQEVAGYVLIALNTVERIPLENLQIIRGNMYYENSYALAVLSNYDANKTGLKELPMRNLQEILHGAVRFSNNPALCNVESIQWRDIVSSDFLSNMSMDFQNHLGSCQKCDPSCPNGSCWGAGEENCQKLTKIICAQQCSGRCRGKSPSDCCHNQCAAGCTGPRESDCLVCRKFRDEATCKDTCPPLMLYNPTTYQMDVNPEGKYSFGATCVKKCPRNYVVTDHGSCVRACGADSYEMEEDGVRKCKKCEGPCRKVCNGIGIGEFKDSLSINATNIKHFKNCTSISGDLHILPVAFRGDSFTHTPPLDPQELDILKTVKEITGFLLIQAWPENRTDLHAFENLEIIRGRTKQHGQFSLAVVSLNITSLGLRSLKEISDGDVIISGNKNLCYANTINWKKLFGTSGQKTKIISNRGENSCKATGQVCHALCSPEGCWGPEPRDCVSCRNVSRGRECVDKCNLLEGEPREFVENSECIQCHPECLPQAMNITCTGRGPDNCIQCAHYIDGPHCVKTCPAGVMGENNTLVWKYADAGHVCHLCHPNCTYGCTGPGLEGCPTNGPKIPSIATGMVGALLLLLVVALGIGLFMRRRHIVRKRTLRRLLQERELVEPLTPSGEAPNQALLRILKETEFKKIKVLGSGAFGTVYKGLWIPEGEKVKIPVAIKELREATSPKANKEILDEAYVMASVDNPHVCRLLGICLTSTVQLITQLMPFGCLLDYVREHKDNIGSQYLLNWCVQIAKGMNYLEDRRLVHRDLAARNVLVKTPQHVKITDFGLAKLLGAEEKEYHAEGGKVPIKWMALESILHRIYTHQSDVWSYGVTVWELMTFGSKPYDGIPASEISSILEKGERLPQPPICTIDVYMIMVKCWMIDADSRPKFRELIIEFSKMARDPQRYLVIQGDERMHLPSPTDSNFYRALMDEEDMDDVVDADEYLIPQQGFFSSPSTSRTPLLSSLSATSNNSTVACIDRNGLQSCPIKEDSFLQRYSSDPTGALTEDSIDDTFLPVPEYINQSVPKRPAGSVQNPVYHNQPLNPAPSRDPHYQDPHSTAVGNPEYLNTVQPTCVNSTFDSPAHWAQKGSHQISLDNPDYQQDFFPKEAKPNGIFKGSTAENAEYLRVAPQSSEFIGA
T2 sequence (P00533 25-1210): as above
Protocol for LNCaP-EGFR: (§1) Cell Culture: The human prostate cancer cell line DU145 was obtained from the American Type Culture Collection (Manassas, Va.)). The androgen-sensitive prostate cancer cell lines LNCaP-FGC, LNCaP-EGFR and LNCaP-erbB2 (stably transfected with EGFR erbB2 gene respectively) were generous gifts from Dr. Moulay Aloui-Jamali (Jewish General Hospital, Montreal, Quebec, Canada). […] The cultures were maintained in logarithmic growth by harvesting with a trypsin-EDTA solution containing 0.5 mg/mL trypsin and 0.2 mg/mL EDTA and replating before confluence. In all assays, the cells were plated over a period of time ranging from 24-48 h prior to drug administration.
Protocol for LNCaP-ErbB2: as §1

For `O=C(Nc1ccc2ncnc(Nc3cccc(Cl)c3)c2c1)c1ncn2c(=O)n(CCCl)nnc12` [JDF12], the IC50 in the test with LNCaP-ErbB2 amounted to 13.3 ± 2.02 µM; in the test on LNCaP-EGFR it was 12 ± 0.57 µM; in test [1] (DU145 cells, EGF stimulated, 2 h drug exposure) it was 12 µM; at EGFR tyrosine kinase, 0.62 µM. For the same compound, the “potency less than that of JDF04R (fold)” value in test [1] (DU145 whole cell assay) is “approximately 2 fold”. Besides, the “DNA damage (tail moment)” value with DU145 cells is recorded as “dose-dependent DNA damage”. For the same compound, the “DNA damage, fold less than MTZ” value in the test on DU145 cells worked out at 2 fold.
